Laboratory results reported in ChEMBL document CHEMBL1148617, “Design, synthesis, and structure-activity relationships of 1-,3-,8-, and 9-substituted-9-deazaxanthines at the human A2B adenosine receptor” (J Med Chem, 2006).

Columns and labels:
[1] = biological target: T1, Adenosine receptor A2b (Homo sapiens) (UniProt P29275); assay: Displacement of [3H]DPCPX from recombinant human adenosine A2B receptor expressed in HEK293 cells at 0.1 uM; type: cell-based
T1 sequence (whole entry): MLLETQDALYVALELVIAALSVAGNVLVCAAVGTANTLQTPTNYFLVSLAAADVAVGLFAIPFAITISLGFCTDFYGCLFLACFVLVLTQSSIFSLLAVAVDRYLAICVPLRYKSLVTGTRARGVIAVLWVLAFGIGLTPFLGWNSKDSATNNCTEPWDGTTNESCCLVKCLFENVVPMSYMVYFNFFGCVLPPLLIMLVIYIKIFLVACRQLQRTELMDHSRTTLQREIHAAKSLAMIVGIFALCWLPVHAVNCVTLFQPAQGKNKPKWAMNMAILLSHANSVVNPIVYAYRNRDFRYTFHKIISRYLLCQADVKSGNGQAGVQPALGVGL

Adenosine receptor A2a [2] = biological target: T2, Adenosine receptor A2a (Homo sapiens, UniProt P29274); assay: Displacement of [3H]ZM-241385 from recombinant human adenosine A2A receptor expressed in HeLa cells at 0.1 uM
T2 sequence (P29274 whole entry): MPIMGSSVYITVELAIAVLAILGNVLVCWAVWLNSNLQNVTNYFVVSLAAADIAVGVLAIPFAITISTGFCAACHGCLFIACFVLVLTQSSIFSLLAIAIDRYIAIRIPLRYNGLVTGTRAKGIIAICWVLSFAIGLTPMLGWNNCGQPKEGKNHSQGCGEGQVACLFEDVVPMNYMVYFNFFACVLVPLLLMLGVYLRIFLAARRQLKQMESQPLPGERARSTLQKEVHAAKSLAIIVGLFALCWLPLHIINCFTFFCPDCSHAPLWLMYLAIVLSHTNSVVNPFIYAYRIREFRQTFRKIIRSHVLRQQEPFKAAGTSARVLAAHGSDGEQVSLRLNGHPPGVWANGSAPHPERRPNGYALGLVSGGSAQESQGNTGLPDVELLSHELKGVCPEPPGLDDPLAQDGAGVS

[3] = biological target: T1, Adenosine receptor A2b (Homo sapiens); assay: Displacement of [3H]DPCPX from recombinant human adenosine A2B receptor expressed in HEK293 cells at 0.01 uM
Adenosine receptor A2a [4] = biological target: T2, Adenosine receptor A2a
Description: Binding affinity to recombinant human adenosine A2A receptor

Adenosine receptor A2b = biological target: T3, Adenosine receptor A2b (Homo sapiens, UniProt P29275)
T3 sequence (P29275 whole entry): T1 sequence (whole entry)
Description: Binding affinity to recombinant human adenosine A2B receptor

Adenosine receptor A1 = biological target: T4, Adenosine receptor A1 (Homo sapiens, UniProt P30542)
T4 sequence (P30542 whole entry): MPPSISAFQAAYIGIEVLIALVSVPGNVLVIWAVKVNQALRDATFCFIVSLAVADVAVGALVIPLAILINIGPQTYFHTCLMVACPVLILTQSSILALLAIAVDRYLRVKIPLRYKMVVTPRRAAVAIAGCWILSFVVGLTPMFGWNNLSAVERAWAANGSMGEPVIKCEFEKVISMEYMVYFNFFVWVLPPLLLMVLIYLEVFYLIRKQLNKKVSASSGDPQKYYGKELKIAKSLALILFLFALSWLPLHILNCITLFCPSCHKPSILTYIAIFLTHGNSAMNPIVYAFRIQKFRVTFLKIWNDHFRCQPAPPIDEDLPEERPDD
Description: Binding affinity to recombinant human adenosine A1 receptor

Row | Compound | inhibition [1] [%] | inhibition (Adenosine receptor A2a [2]) [%] | inhibition [3] [%] | Ki (Adenosine receptor A2a [4]) [nM] | Ki (Adenosine receptor A2b) [nM] | Ki (Adenosine receptor A1) [nM]
1 | CCCn1c(=O)c2[nH]c(-c3ccc(OCC(=O)Nc4ccc(-c5ccccc5)cc4)cc3)cc2n(CCC)c1=O | 80 | 36 | 40 | 69.2 | 16.2 | –
2 | CCCn1c(=O)c2[nH]c(-c3ccc(OCC(=O)n4ccc(N)n4)cc3)cc2n(CCC)c1=O | 83 | 65 | 30 | 26.3 | 17 | –
3 | Cn1c(=O)c2[nH]c(-c3ccc(OCC(=O)NC4CCCC4)cc3)cc2n(C)c1=O | 57 | 8 | 20 | 692 | 79.4 | –
4 | CCCn1c(=O)n(C)c(=O)c2[nH]c(-c3ccc(OCC(=O)Nc4ccc(F)cc4)cc3)cc21 | 93 | 24 | 43 | 112 | 9.55 | –
5 | COc1cc(OCC(=O)NCc2ccc(Cl)cc2)ccc1-c1cc2c([nH]1)c(=O)n(C)c(=O)n2C | 46 | 23 | 11 | 186 | 123 | –
6 | CCCn1c(=O)c2[nH]c(-c3ccc(OCC(=O)NCc4ccccc4)cc3)cc2n(CCC)c1=O | 95 | 38 | 78 | 89.1 | 3.16 | –
7 | Cn1c(=O)c2[nH]c(-c3ccc(OCC(=O)Nc4ccccc4)cc3)cc2n(C)c1=O | 91 | 10 | 44 | – | – | 240
8 | CCCn1c(=O)c2[nH]c(-c3ccc(OCC(=O)Nc4ccc(OC)nc4)cc3)cc2n(C)c1=O | 99 | 30 | 57 | 132 | 3.16 | –
9 | CCCn1c(=O)c2[nH]c(-c3ccc(OCC(=O)Nc4ccc(C(N)=O)cc4)cc3)cc2n(CCC)c1=O | 78 | 43 | 16 | 24 | 25.1 | –
10 | CCn1c(=O)c2[nH]c(-c3ccc(OCC(=O)Nc4ccc(C#N)cc4)cc3)cc2n(CC)c1=O | 79 | 2 | 20 | 120 | 13.5 | –
11 | COc1cccc(CNC(=O)COc2ccc(-c3cc4c([nH]3)c(=O)n(C)c(=O)n4C)cc2)c1 | 61 | 11 | 15 | 331 | 51.3 | –
12 | COc1cc(OCC(=O)Nc2ccccc2)ccc1-c1cc2c([nH]1)c(=O)n(C)c(=O)n2C | 55 | 13 | 12 | 1050 | 69.2 | –
13 | CCCn1c(=O)c2[nH]c(-c3ccc(OC(CC)C(=O)Nc4ccccc4)cc3)cc2n(CCC)c1=O (stereo not drawn) | 93 | 88 | 48 | 25.7 | 9.77 | –
14 | CCCn1c(=O)c2[nH]c(-c3ccc(OCC(=O)Nc4ccc(Br)cc4)cc3)c(Cl)c2n(CCC)c1=O | 73 | 37 | 15 | 126 | 24.5 | –
15 | CC(Oc1ccc(-c2cc3c([nH]2)c(=O)n(C)c(=O)n3C)cc1)C(=O)Nc1ccc(Br)cc1 (stereo not drawn) | 93 | 77 | 89 | 26.9 | 1.55 | –
16 | CCCn1c(=O)c2[nH]c(-c3ccc(OCC(=O)Nc4ccc(S(=O)(=O)c5ccccc5)cc4)cc3)cc2n(CCC)c1=O | 85 | 27 | 10 | 282 | 17.4 | –
17 | CCCn1c(=O)c2[nH]c(-c3ccc(OCC(=O)Nc4ccc(F)cc4)cc3)nc2n(CCC)c1=O | – | – | – | – | – | 18.2
18 | CCCn1c(=O)c2[nH]c(-c3ccc(OC(C)C(=O)NCc4ccc(Cl)cc4)cc3)cc2n(CCC)c1=O (stereo not drawn) | 94 | 57 | 55 | 46.8 | 4.07 | –
19 | CCCn1c(=O)c2[nH]c(-c3ccc(OC(CC)C(=O)Nc4ccc(F)cc4)cc3)cc2n(CCC)c1=O (stereo not drawn) | 100 | 88 | 68 | 19.1 | 4.79 | –
20 | CCCn1c(=O)c2[nH]c(-c3ccc(OCC(=O)Nc4ccc(F)cc4)cc3)c(Br)c2n(CCC)c1=O | 72 | 70 | 30 | 20 | 12.6 | –
21 | CCCn1c(=O)c2[nH]c(-c3ccc(OCC(=O)Nc4cc(OC)nc(OC)n4)cc3)cc2n(CCC)c1=O | 80 | 41 | 30 | 89.1 | 11 | –
22 | CCCn1c(=O)c2[nH]c(-c3ccc(OCC(=O)Nc4ccccc4)cc3)cc2n(CCC)c1=O | 92 | 6 | 47 | 224 | 9.33 | –

Second part, the compound after the results:

Row | inhibition [1] [%] | inhibition (Adenosine receptor A2a [2]) [%] | inhibition [3] [%] | Ki (Adenosine receptor A2a [4]) [nM] | Ki (Adenosine receptor A2b) [nM] | Ki (Adenosine receptor A1) [nM] | Compound
23 | 80 | 40 | 33 | 195 | 21.4 | – | CCCn1c(=O)n(C)c(=O)c2[nH]c(-c3ccc(OCC(=O)Nc4ccccc4)cc3)cc21
24 | 87 | 28 | 14 | 224 | 33.9 | – | CCCn1c(=O)c2[nH]c(-c3ccc(OCC(=O)Nc4ccc(CC(=O)O)cc4)cc3)cc2n(CCC)c1=O
25 | 73 | 54 | 16 | 42.7 | 24.5 | – | CCCn1c(=O)c2[nH]c(-c3ccc(OCC(=O)Nc4ccccc4)cc3)c(Br)c2n(CCC)c1=O
26 | 57 | 37 | 11 | 74.1 | 37.2 | – | CCCn1c(=O)c2[nH]c(-c3ccc(OCC(=O)Nc4ccccc4)cc3)c(Cl)c2n(CCC)c1=O
27 | 70 | 31 | 58 | 52.5 | 7.76 | – | CCCn1c(=O)c2[nH]c(-c3ccc(OCC(=O)Nc4ccc(CS(=O)(=O)N5CCCC5)cc4)cc3)cc2n(CCC)c1=O
28 | – | – | – | 2.24 | 1.51 | 40.7 | CCCn1c(=O)c2[nH]c(-c3ccc(OCC(=O)Nc4ccccc4)cc3)nc2n(CCC)c1=O
29 | 66 | 76 | 21 | 15.8 | 21.9 | – | CCCn1c(=O)c2[nH]c(-c3ccc(OCC(=O)c4c(NC(=O)O)[nH]c(=O)n(C)c4=O)cc3)cc2n(CCC)c1=O
30 | 82 | 32 | 37 | 324 | 20.9 | – | CCCn1c(=O)c2[nH]c(-c3ccc(OCC(=O)Nc4ncccc4O)cc3)cc2n(CCC)c1=O
31 | 66 | 25 | 12 | 182 | 51.3 | – | Cn1c(=O)c2[nH]c(-c3ccc(OCC(=O)NCc4ccccc4)cc3)cc2n(C)c1=O
32 | 16 | 0 | 8 | 427 | 263 | – | COCCCn1c(=O)n(C)c(=O)c2[nH]c(-c3ccc(OCC(=O)NC4CCCC4)cc3)cc21
33 | 43 | 23 | 5 | 158 | 186 | – | COc1cc(-c2cc3c([nH]2)c(=O)n(C)c(=O)n3C)ccc1OCC(=O)NCc1ccc(Cl)cc1
34 | 25 | 44 | 8 | 49 | 174 | – | CCCn1c(=O)c2[nH]c(-c3ccc(OCC(=O)NCc4ccc(F)cc4)cc3)c(Cl)c2n(CCC)c1=O
35 | 47 | 43 | 10 | 60.3 | 83.2 | – | CCCn1c(=O)c2[nH]c(-c3ccc(OCC(=O)NCc4ccccc4)cc3)c(Cl)c2n(CCC)c1=O
36 | 83 | 34 | 33 | 309 | 26.9 | – | CCCn1c(=O)c2[nH]c(-c3ccc(OCC(=O)Nc4ccccn4)cc3)cc2n(CCC)c1=O
37 | 94 | 82 | 55 | 31.6 | 6.03 | – | CCCn1c(=O)c2[nH]c(-c3ccc(OC(CC)C(=O)Nc4ccc(Br)cc4)cc3)cc2n(CCC)c1=O (stereo not drawn)
38 | 74 | 13 | 21 | 427 | 12.3 | – | CCCn1c(=O)c2[nH]c(-c3ccc(OCC(=O)Nc4ccc(C(=O)NCCc5ccc(OC)cc5)cc4)cc3)cc2n(CCC)c1=O
